# In publication PMC12406195, “Understanding the Modes of Action of β‑Ketoiminato Iridium(III) Complexes in Cancer Cells” (Inorganic Chemistry, 2025):
# Tests used:
# MDA-MB-231 cells [1] = assay: Chemosensitivity (MTT cell viability) assay, MDA-MB-231; type: cell-based, human; conditions: for IC50: n = 9
# Description: (§1) All cytotoxicity assays were conducted using human cell lines: breast adenocarcinomas (MDA-MB-231 and MCF-7), pancreatic carcinoma (MIA PaCa-2) and non-cancerous epithelial retinal (ARPE-19) cell lines. All cell lines were routinely maintained as monolayer cultures in appropriate complete media:
# (§2) MCF-7, MIA PaCa-2 and ARPE-19 in high glucose DMEM and MDA-MB-231 in RPMI-1640, and both media were supplemented with 10% FBS, 1 mM sodium pyruvate, 2 mM L-glutamine, and 1% pen-strep. All cells were initially grown in T-25 or T-75 flasks at 37 °C and 5% CO2. Before chemosensitivity studies, cell monolayers were passaged using trypsin-EDTA (0.05%) and diluted to a concentration of 1 x 10^4 cells/mL (or 4 x 10^4 cells mL for 24 h assays). All assays were conducted in 96-well plates, in which 100 µL of the cell suspension was added for 24 h at 37 °C and 5% CO2, and then 100 µL of compound/medium dilutions for a further 96 h (or 24 h). All compound stocks were made using sterile DMSO at 100 mM before dilution, and a maximum of 0.1% DMSO was used in each assay. After incubation, 3-(4,5-dimethylthiazol-2-yl)-2,5-diphenyltetrazolium bromide (20 µL, 5 mg/mL in PBS) was added to each well and incubated for 3 h at 37°C and 5% CO2. All solutions were then aspirated, DMSO (150 µL) added to each well, gently mixed, and the absorbance was measured at 540 nm using a ClarioStar spectrophotometer microplate reader. Results were plotted on a logarithmic scale, and the half maximal inhibitory concentration (IC50) was determined from a triplicate of triplicate repeats (n = 9) and reported as an IC 50 ± Standard Deviation (SD).
# MDA-MB-231 cells [2] = assay: Reactive oxygen species (H2DCFDA fluorescence); type: cell-based, human; conditions: MDA-MB-231, 100 μM, 4 h, compared to nontreated control
# Description: To measure the degree of ROS produced in MDA-MB-231 cells, 2′,7′-dichlorodihydrofluorescein diacetate (H2DCFDA), a cell-permeable fluorescent dye, was used. H2DCFDA is deacetylated by esterases and consecutively oxidized by intracellular ROS into a fluorescent molecule, dichlorofluorescein (DCF).
# MDA-MB-231 cells at 4000 cells/well were seeded into a black clear -bottom 96-well plate using phenol-red free complete RMPI medium, and incubated for 48 h. The cells were treated with 100 µM of 1 for 4 h alongside an untreated sample (control). 2′,7′ -dichlorodihydrofluorescein diacetate (H 2DCFDA, 20 μM final concentration in PBS ) was added for 45 min. […] Fluorescence images were obtained using a Zeiss Observer 7 inverted microscope at excitation at 488 nm and emission at 509 […]
# (§3) Plasmid DNA (200 ng, pBOS -H2B-GFP, BD Biosciences) was incubated overnight at room temperature with 1 or CDDP at concentrations between 100 and 400 μM in double -distilled H2O (20 μL total volume). […] The experiment was conducted in two biological replicates, and the band intensities were quantified and analyzed using ImageJ software. […]
# MDA-MB-231 cells were seeded in 6-well plates at a density of 1.2 × 10⁵ cells/well. […] The samples were then placed on microscope slides, covered with a coverslip, and their morphology was examined using a fluorescence microscope (Eclipse TS100, Nikon). […]
# MIA PaCa-2 cells = assay: Chemosensitivity (MTT cell viability) assay, MIA PaCa-2; type: cell-based, human
# Description: as §1, §2
# plasmid DNA = assay: Plasmid DNA interaction, agarose gel electrophoresis; type: biochemical; conditions: 200 ng plasmid DNA, 100–400 μM, cell-free
# Description: The ability of compounds to intercalate, nick, or cleave DNA can be evaluated using gel electrophoresis with plasmid DNA. In this study, in vitro plasmid DNA assays were performed by incubating 200 ng of plasmid DNA with different concentrations (100–400 μM) of 1 or CDDP, which served as a positive control. The DNA fragments were then separated via agarose gel electrophoresis, and potential changes in DNA migration patterns were analyzed.
# 5 Plasmid DNA (200 ng) was incubated with varying concentrations (100, 200, and 400 μM) of compound 1 or CDDP for 24 h at room temperature. The DNA was then separated via agarose gel electrophoresis, and the intensity of supercoiled and nicked circular DNA bands was quantified and expressed as mean ± SEM (n = 4).
# MDA-MB-231 cells at 4000 cells/well were seeded into a black clear -bottom 96-well plate using phenol-red free complete RMPI medium, and incubated for 48 h. […] Fluorescence images were obtained using a Zeiss Observer 7 inverted microscope at excitation at 488 nm and emission at 509 […]
# as §3
substance,measurement,setting,value
[Cp*Ir(C16H14NO)(PTA)](PF6) [Compound 1],IC50,"MDA-MB-231 cells [1]; MDA-MB-231, 24 h",18 ± 1 µM
same,IC50,"MDA-MB-231 cells [1]; MDA-MB-231, 96 h",6.3 ± 0.7 µM
same,Selectivity index (SI),"MDA-MB-231 cells [1]; MDA-MB-231 compared to ARPE-19, 96 h",1.7
same,ROS generation (DCF fluorescence),MDA-MB-231 cells [2],increase in fluorescence
same,IC50,"MIA PaCa-2 cells; MIA PaCa-2, 96 h, n = 9",9 ± 1 µM
same,Selectivity index (SI),"MIA PaCa-2 cells; MIA PaCa-2 compared to ARPE-19, 96 h",1.2
same,Plasmid DNA migration,plasmid DNA,did not induce any apparent shift
